Source: US9320810B2, “HMGN2 peptides and related molecules that selectively home to tumor blood vessels and tumor cells” (Sanford-Burnham Medical Research Institute, priority 2002, dated 2016)
Where no end group is shown, it is not given here.

Experiments:
[1] = system: mitochondrial membranes; conditions: cited from earlier work
[2] = system: primary cells obtained from HL-60 xenograft tumors; test: Phage binding to primary cells obtained from HL-60 xenograft tumors; assay type: cell-based, human; conditions: phage-displayed
Source text: (§1) In particular, about 1000 times more SEQ ID NO:5-displaying phage than non-recombinant T7 phage bound to cultured HL-60 or MDA-MB-435 cells in vitro. Similarly, SEQ ID NO:5-displaying also bound cell suspensions prepared from HL-60 tumors with a 1000-fold specificity relative to control T7 phage.
Phage displaying a set of sequences corresponding to fragments of the amino-terminal portion of HMGN2 (SEQ ID NO: 5) were constructed to localize the region responsible for cell binding and in vivo homing. Fragments were designed to follow the exon/intron boundaries of the HMGN2 gene. Inserts encoding the indicated fragments were amplified from the full length HMGN2 phage clone by PCR, purified, digested and directionally cloned into the T7 415-1 and 10-3 vectors. Phage were packaged, amplified and sequenced according to the manufacturer's instructions. Phage preparations were then tested for binding to primary cells obtained from HL-60 xenograft tumors. After a 1 hour incubation at 4° C., cells were washed, and bound phage quantified. […] Furthermore, phage displaying the N-terminal portion of the active fragment SEQ ID NO: 9, which corresponds to exon 3 of the HMGN2 gene, were prepared. These phage expressing the sequence PQRRSARLSA (SEQ ID NO: 11) bound to tumor cells 90-fold more than non-recombinant phage.

[3] = system: HL-60 cells; test: Phage binding to cultured HL-60 cells in vitro; assay type: cell-based, human; conditions: phage-displayed HMGN1 exon 3 sequence
Experimental: as §1
The phage binding assay was performed essentially as follows. Attachment of phage to cells was quantified by incubating 1×10^8 pfu of phage displaying SEQ ID NO: 9 for 60 minutes with 1×10^6 HL-60 cells at 4° C. in Tris-buffered saline with 1 mM Ca^+2 and 1 mM MgCl2. Bound phage were rescued after four washes with phosphate-buffered saline by adding 1 ml of bacteria for 7 minutes at room temperature. Bound phage were quantified by plating and counting pfu.
Binding of SEQ ID NO: 9-displaying phage to tumor cells was inhibited by free SEQ ID NO: 9 peptide in a dose dependent fashion. […] In contrast, background binding of non-recombinant phage was unaffected by free peptide. Specificity of cell binding by peptide SEQ ID NO: 9 was further confirmed by comparing HL-60 cell binding of phage expressing the HMGN2 exon 3 sequence PQRRSARLSA (SEQ ID NO: 11) to binding with phage expressing the homologous HMGN1 exon 3 sequence PKRRSARLSA (SEQ ID NO: 12).

[4] = system: HL-60 xenograft tumors; test: Tissue localization of intravenously injected fluorescein-conjugated peptide, HL-60 xenograft mice; assay type: in vivo, mouse; conditions: tail vein
Experimental: To study peptide localization, fluorescein-conjugated SEQ ID NO: 9 or ARALPSQRSR (SEQ ID NO: 13) was injected into the tail vein of mice bearing HL-60 or MDA-MB-435 xenografts. Peptide injection was followed 10 minutes later by injection of biotinylated tomato lectin, a marker of the vasculature. After another five minutes, mice were perfused through the heart with fixative solution, and the organs dissected, sectioned and stained with streptavidin-AlexaFluor 594. Slides were counter-stained with DAPI and examined under an inverted fluorescent microscope.
As shown in FIGS. 3A and G-J, fluorescence predominantly localized to nuclei, with most of the tumor cells containing fluorescence positioned close to blood vessels. […] In some microscopic fields, SEQ ID NO: 9 fluorescence essentially was limited to the endothelial cells, clearly illustrating the expression of peptide SEQ ID NO: 9 within endothelial cells and their nuclei (see FIG. 3F).
Histological analyses were performed as follows. […] Biotin-conjugated lectin was detected with streptavidin-Alexa 594 (Molecular Probes; Eugene, Oreg.); the slides were mounted with Vectashield-DAPI (Vector Laboratories; Burlingame, Calif.), and examined under an inverted fluorescent microscope.

[5] = system: human bone marrow mononuclear cells; test: Flow cytometry of fluorescein-labeled peptide binding to human bone marrow mononuclear cells; assay type: cell-based; conditions: FIG. 4, fluorescent peptide
Experimental: Fluorescein-labeled SEQ ID NO: 9 or control peptide SEQ ID NO: 13 (2 μM) were incubated with gradient-depleted bone marrow cells for one hour at 4° C. and analyzed in a flow cytometer. […] The SEQ ID NO: 9-positive cells were the size of lymphocytes, agranular, CD45-positive and mostly CD34-negative, a marker profile similar to that of the lineage-depleted murine bone marrow cells used in the in vitro phage selection.
Flow cytometry was performed as follows. Human bone marrow specimens represented excess material from samples collected for diagnostic purposes from adults with hematological malignancies following informed consent. A total of 2 ml of bone marrow was aspirated from the posterior iliac crest and stored in a citrate anticoagulant. Mononuclear cells were isolated by gradient centrifugation (Ficoll-Paque PLUS; Amersham Pharmacia Biotech; Uppsala, Sweden) and incubated in RPMI-1640 media supplemented with 10% FBS for two hours at 37° C. Cells subsequently were transferred to 4° C. and incubated with 1-2 μM fluorescein-conjugated peptide for 45 minutes before staining with PerCP- or PE-conjugated CD34 and CD45 antibodies (Beckton Dickinson Biosciences; San Jose, Calif.) for 30 minutes. Samples were analyzed with either a FACSCalibur or LSR flow cytometer (Beckton Dickinson Biosciences); 100,000 events were collected.

Substance: D(KLAKLAK)2: antimicrobial, pro-apoptotic peptide
- concentration inducing marked mitochondrial swelling [1]: 10 µM

Substance: PQRRSARLSA [SEQ ID NO: 11]
- binding to tumor cells relative to non-recombinant phage [2]: 90 fold

Substance: PKRRSARLSA [SEQ ID NO: 12]
- reduction of HL-60 cell binding relative to HMGN2 phage expressing SEQ ID NO: 11 [3]: 90%

Substance: ARALPSQRSR (not fully specified (N-terminus); also: fluorescein label) [SEQ ID NO: 13, fluorescein-labeled scrambled exon 3 control peptide]
- fluorescence in tumor tissue ([4]; fluorescein-conjugated peptide, about 15 minutes circulation): essentially undetectable in other tissues, including the HL-60 tumors
- fluorescence in kidneys ([4]; fluorescein-labeled peptide, non-specific uptake): diffuse fluorescence accumulated in proximal tubules of kidneys
- number of cells in lower right quadrant (FACS) [5]: 1
- percentage of cells in lower right quadrant (FACS) [5]: 0.0
